One experiment deals with HSV-1. Briefly: Anti-HSV-1 activity (plaque-formation inhibition in human embryonic lung fibroblasts). Format: cell-based, herpes simplex virus 1 (HSV-1), VR-3 strain. To be noted: Human alphaherpesvirus 1, Fibroblast, read-out: Antiviral Activity (ED50) HSV-1. Here is the method: (§1) (1) Anti-HSV-1 Activity and Anti-HSV-2 Activity
(§2) 1. Fibroblasts derived from human embryonic lung tissue are subcultured in an Eagle's MEM supplemented with 10% of pseudo fetal calf serum (Mitsubishi Chemical Corp.), by passing at 1: (2-4) split every 4 or 5 days.
(§3) 2. A cell suspension obtained from the parent cells by passing at 1:2 split is seeded on a 12-well multiplate at a rate of 2 ml/well, and incubated in a CO2 -incubator at 37° C. for 4 days.
(§4) 3. The culture medium is discarded; a Hanks' MEM (250 microlitters) containing 50 to 150 PFU of the VR-3 strain of HSV-1 or the MS strain of HSV-2 is inoculated, thereby allowing the cells to adsorb the virus at 37° C. for 30 minutes; and then the virus liquid is discarded.
(§5) 4. A serum (2.5%)-added Eagle's MEM containing a test agent and 0.8% of methyl cellulose is added; and the resultant is incubated in a CO2 -incubator at 37° C. for 2 to 3 days. In general, the test agent is diluted serially by 1/2 log 10.
(§6) 5. The culture medium is discarded, and the resultant is dyed with a 0.5% solution of crystal violet; the number of plaques in each well is counted under a stereoscopic light microscope; and the rate of plaque-formation inhibition is obtained from the equation below.
(§7) 6. The rates of plaque-formation inhibition are plotted against the concentrations (in logarithm) of the test agent, and, from this dose--plaque-formation inhibition curve, 50% inhibitory concentration (ED50) of the test agent is obtained. [formula] (2) Anti-Varicella Zoster Virus (VZV) Activity

The test system of the next experiment is HSV-2. Briefly: Anti-HSV-2 activity (plaque-formation inhibition in human embryonic lung fibroblasts). Format: cell-based, herpes simplex virus 2 (HSV-2), MS strain. To be noted: Human alphaherpesvirus 2, Fibroblast, read-out: Antiviral Activity (ED50) HSV-2. The procedure:
as §1, §2, §3, §4, §5, §6, §7

Another experiment concerns VZV. Briefly: microbe, parasite or virus in culture. Format: cell-based, varicella-zoster virus (VZV), Oka strain. To be noted: Human alphaherpesvirus 3, Fibroblast, read-out: Antiviral Activity (ED50) VZV.
Excerpt: as §7, §2, §3
3. The culture medium is discarded; and 750 microlitters of a serum (5%)-added Eagle's MEM containing 50 to 100 PFU of the Oka strain of VZV is inoculated, thereby allowing the cells to adsorb the virus at 37° C. for 1 hour.
4. The same amount of an MEM containing a test agent is added without discarding the virus liquid, and the resultant is incubated in a CO2 -incubator at 37° C. In general, the test agent is diluted serially by 1/2 log 10.
5. After 4-5 day incubation, the culture medium is discarded, and the resultant is dyed with a 0.5% solution of crystal violet; the number of plaques in each well is counted under a stereoscopic light microscope; and the rate of plaque-formation inhibition is obtained from the same equation as is used in the above (1).
6. The rates of plaque-formation inhibition are plotted against the concentrations (in logarithm) of the test agent, and, from this dose--plaque-formation inhibition curve, 50% inhibitory concentration (ED50) of the test agent is obtained.

Another experiment relates to HCMV. Briefly: Anti-Human Cytomegalovirus (HCMV) activity (plaque-formation inhibition in human embryonic lung fibroblasts). Format: cell-based. To be noted: Human betaherpesvirus 5, AD169, Fibroblast, HCMV AD-169 strain, 4 days plus further 4 to 5 days, 50% plaque-formation inhibition, read-out: Antiviral Activity (ED50) HCMV. The procedure:
(3) Anti-Human Cytomegalovirus (HCMV) Activity
as §2
2. A cell suspension obtained from the parent cells by passing at 1:2 split is seeded on a 24-well multiplate at a rate of 0.8 ml/well, and incubated in a CO2 -incubator at 37° C. for 4 days.
3. The culture medium is discarded; and 400 microlitters of a serum (5%)-added Eagle's MEM containing 50 to 100 PFU of the AD-169 strain of HCMV is inoculated, thereby allowing the cells to adsorb the virus at 37° C. for 1 hour.
4. The same amount of an MEM containing a test agent is added without discarding the virus liquid, and the resultant is incubated in a CO2 -incubator at 37° C. for 4 days. In general, the test agent is diluted serially by 1/2 log 10.
5. The culture medium is replaced with a serum (2.5%)-added Eagle's MEM containing the test agent with the same concentration and 0.8% of methyl cellulose, and incubation is continued for a further 4 to 5 days.
6. The culture medium is discarded, and the resultant is dyed with May-Gruenwald's and Giemsa (×10) solutions; the number of plaques in each well is counted under a stereoscopic light microscope; and the rate of plaque-formation inhibition is obtained from the same equation as is used in the above (1).
7. The rates of plaque-formation inhibition are plotted against the concentrations (in logarithm) of the test agent, and, from this dose--plaque-formation inhibition curve, 50% inhibitory concentration (ED50) of the test agent is obtained.

[1] abbreviates: HSV-1 VR-3 strain, human embryonic lung fibroblasts, 2 to 3 days, 50% plaque-formation inhibition.
The mark [2] stands for this setting: HSV-2 MS strain, human embryonic lung fibroblasts, 2 to 3 days, 50% plaque-formation inhibition.

Each structure is given as a SMILES string. Converted amounts (≈) assume the structure as drawn. Read-outs that look alike come from different tables or passages of the source.

As to `Nc1ncnc2c1ncn2[C@@H]1O[C@H](CO)[C@@H](O)[C@@H]1O` [Control Example 1, araA, reference compound], the EC50 with HSV-1 came out at 17.1 µg/mL (≈ 64 µM); in the experiment on HSV-2, 6.6 µg/mL (≈ 24.7 µM); in the experiment with VZV it was 1.17 µg/mL (≈ 4.38 µM); in the experiment with HCMV, 6.5 µg/mL.

As for `Nc1nc2c(ncn2COCCO)c(=O)[nH]1` [Control Example 2, acyclovir, reference compound], the results for the EC50 in the experiment with HSV-1 (setting [1]), in the experiment on HSV-2 (setting [2]) and with HCMV were 0.14 µg/mL (≈ 0.622 µM), 0.23 µg/mL (≈ 1.02 µM) and 6.9 µg/mL, respectively.

Consider `Nc1nc(O)c2ncn(COC(CO)CO)c2n1` [Control Example 3, ganciclovir, reference compound], for which the EC50 in the experiment on HSV-1 (setting [1]) turned out to be 0.016 µg/mL (≈ 0.0627 µM); in the experiment on HSV-2 (setting [2]), 0.039 µg/mL (≈ 0.153 µM); in the experiment on VZV, 3.1 µg/mL (≈ 12.1 µM); with HCMV, 0.21 µg/mL.

Take `Nc1ncnc2c1ncn2[C@@H]1S[C@H](CO)[C@@H](O)[C@@H]1F` [Synthesis Example 1, 9-(2-deoxy-2-fluoro-4-thio-beta-D-arabinofuranosyl)adenine]: the EC50 in the experiment with HSV-1 (setting [1]) worked out at 1.61 µg/mL (≈ 5.64 µM); in the experiment with HSV-2 (setting [2]), 3.07 µg/mL (≈ 10.8 µM); with VZV it was 3.04 µg/mL (≈ 10.7 µM); with HCMV it was 1.41 µg/mL.

As for `Nc1nc(N)c2ncn([C@@H]3S[C@H](CO)[C@@H](O)[C@@H]3F)c2n1` [Synthesis Example 2, 9-(2-deoxy-2-fluoro-4-thio-beta-D-arabinofuranosyl)-2,6-diaminopurine], the EC50 was 0.0057 µg/mL (≈ 0.019 µM) in the experiment on HSV-1 (setting [1]), 0.05 µg/mL (≈ 0.166 µM) with HSV-2 (setting [2]), 0.101 µg/mL (≈ 0.336 µM) in the experiment on VZV and 0.066 µg/mL in the experiment on HCMV.

With `Nc1nc2c(ncn2[C@@H]2S[C@H](CO)[C@@H](O)[C@@H]2F)c(=O)[nH]1` [Synthesis Example 3, 9-(2-deoxy-2-fluoro-4-thio-beta-D-arabinofuranosyl)guanine], the EC50 in the experiment on HSV-1 (setting [1]) was 0.0091 µg/mL (≈ 0.0302 µM); with HSV-2 (setting [2]), 0.063 µg/mL (≈ 0.209 µM); in the experiment on VZV, 0.095 µg/mL (≈ 0.315 µM); with HCMV it was 0.078 µg/mL.

These data come from patent US6103707A, “9-(2-deoxy-2-fluoro-4-thio-beta-D-arabinofuranosyl)purine derivatives” (Yamasa Corporation, priority 1996, dated 2000).
